Experimental data from ChEMBL document CHEMBL3120092, “Discovery of GS-9669, a thumb site II non-nucleoside inhibitor of NS5B for the treatment of genotype 1 chronic hepatitis C infection” (J Med Chem, 2014).

Columns and labels:
[1] = system: Hepatitis C virus; test: Antiviral activity against Hepatitis C virus H77 genotype 1a infected in human HuH7 cells assessed as intrinsic antiviral potency after 72 hrs by luciferase reporter gene assay; format: functional, organism-based, Hepacivirus hominis; settings: genotype 1a H77, Huh-7, 72 h
[2] = Mean residence time in Sprague-Dawley rat at 1 mg/kg, iv; format: ADME, organism-based; set-up: dose 1 mg/kg, route intravenous; settings: in vivo
[3] = Cytotoxicity against human MT4 cells after 5 days by Cell Titre Glo assay; format: cell-based
[4] = Fraction unbound in cell culture medium at 2 uM at pH 7.4 by equilibrium dialysis method; format: ADME
[5] = system: Hepatitis C virus; test: Antiviral activity against Hepatitis C virus H77 genotype 1a infected in human HuH7 cells assessed as observed antiviral potency after 72 hrs by luciferase reporter gene assay; format: functional, organism-based, Hepacivirus hominis; settings: genotype 1a H77, Huh-7, 72 h
[6] = system: Hepatitis C virus; test: Antiviral activity against HCV genotype 1b harboring NS5B polymerase M423T mutant infected in human HuH7-Lunet cells by luciferase reporter gene assay; format: functional, organism-based, Hepacivirus hominis; settings: Huh-7
[7] = system: Hepatitis C virus; test: Antiviral activity against HCV genotype 1b harboring wild type NS5B polymerase infected in human HuH7-Lunet cells by luciferase reporter gene assay; format: functional, organism-based, Hepacivirus hominis; settings: Huh-7
[8] = system: Hepatitis C virus; test: Antiviral activity against Hepatitis C virus H77 genotype 1a infected in human HuH7 cells assessed as plasma adjusted antiviral potency after 72 hrs by luciferase reporter gene assay; format: functional, organism-based, Hepacivirus hominis; settings: genotype 1a H77, Huh-7, Plasma
[9] = system: Hepatitis C virus; test: Selectivity ratio of EC50 for HCV genotype 1b harboring NS5B polymerase M423T mutant to EC50 for HCV genotype 1b harboring wild type NS5B polymerase; format: functional, Hepacivirus hominis
[10] = Intrinsic cytotoxicity against human MT4 cells after 5 days by Cell Titre Glo assay; format: cell-based
[11] = Mean residence time in Sprague-Dawley rat at 0.5 mg/kg, iv; format: ADME, organism-based; set-up: dose 0.5 mg/kg, route intravenous; settings: in vivo
[12] = Lipophilicity, log D of the compound by chromatography; format: physicochemical
[13] = Mean residence time in Sprague-Dawley rat at 0.4 mg/kg, iv; format: ADME, organism-based; set-up: dose 0.4 mg/kg, route intravenous; settings: in vivo
[14] = system: Hepatitis C virus; test: Antiviral activity against HCV genotype 1 infected in human patient assessed as log10 reduction in viral RNA in plasma at 700 mg/kg, bid after 8 days; format: functional, Hepacivirus hominis
[15] = Half life in human patient infected with chronic HCV; format: ADME, organism-based; settings: in vivo
[16] = system: Hepatitis C virus; test: Antiviral activity against HCV infected in human patient assessed as log10 reduction in viral RNA in plasma at 500 mg/kg, qd after 3 days; format: functional, Hepacivirus hominis
[17] = Cytotoxicity against human HuH7 cells after 3 days by Cell Titre Glo assay; format: cell-based, Huh-7
[18] = system: Hepatitis C virus; test: Antiviral activity against Hepatitis C virus Con1 genotype 1b infected in human HuH7 cells after 72 hrs by luciferase reporter gene assay; format: functional, organism-based, Hepacivirus hominis; settings: isolate Con1, Huh-7, 72 h
[19] = system: Hepatitis C virus; test: Antiviral activity against HCV genotype 1b infected in human patient assessed as log10 reduction in viral RNA in plasma at 750 mg/kg, bid after 3 days; format: functional, Hepacivirus hominis

Structure (SMILES) | EC50 [1] [nM] | CC50 at 120 h [3] [nM] | fraction unbound at 2 µM [4] | EC50 [5] [nM] | EC50 [6] [nM] | EC50 [8] [nM] | Ratio EC50 [9] | CC50 at 120 h [10] [nM] | further results
CC(C)(C)C#Cc1cc(N(C(=O)[C@H]2CC[C@H](C)CC2)[C@H]2CC[C@H](Oc3cccnc3)CC2)c(C(=O)O)s1 | 3.6 | > 20000 | 0.03 | 128 |  |  |  |  | MRT [2]: 3.4 h
CC(C)(C)C#Cc1cc(N(C(=O)[C@H]2CC[C@H](C)CC2)[C@H]2CC[C@H](Oc3nccs3)CC2)c(C(=O)O)s1 | 1.5 | > 20000 |  | 84 |  |  |  |  | MRT [2]: 2.8 h
CC(C)(C)C#Cc1cc(N(C(=O)[C@H]2CC[C@H](C)CC2)[C@H]2CC[C@](O)(CO[C@H]3CCOC3)CC2)c(C(=O)O)s1 | 2.2 | > 20000 |  |  | 47 | 208 | 4 | 8980 | EC50 [7]: 12 nM; MRT [11]: 3.8 h; chromatographic logD [12]: 2.4
CC(C)(C)C#Cc1cc(N(C(=O)[C@H]2CC[C@H](C)CC2)[C@H]2CC[C@H](Oc3ccc4nccn4n3)CC2)c(C(=O)O)s1 | 1.3 | > 20000 |  | 192 |  | 1130 |  | 133 | MRT [13]: 6.2 h; chromatographic logD [12]: 2.4
CC1=CC[C@H](C(=O)N(c2cc(C#CC(C)(C)C)sc2C(=O)O)C(C)C)CC1 | 2.2 | > 20000 | 0.07 | 31 | 40 |  | 5 |  | EC50 [7]: 8 nM
CCc1cc(CC[C@]2(C3CCCC3)CC(O)=C(Cc3nc4nc(C)cc(C)n4n3)C(=O)O2)cc(CC)n1 [FILIBUVIR] |  |  |  |  |  |  |  |  | FC [14]: 2.3
CC1=CC[C@H](C(=O)N(c2cc(C#CC(C)(C)C)sc2C(=O)O)[C@H]2CC[C@](O)(CO[C@H]3CCOC3)CC2)CC1 [RADALBUVIR] | 2.9 | > 20000 |  | 11 | 14 | 128 | 2 | 12100 | half-life [15]: 6 h; EC50 [7]: 6 nM; FC [16]: 3.6; MRT [11]: 2.7 h
CC(C)N(c1cc(C#CC(C)(C)C)sc1C(=O)O)C(=O)[C@H]1CC[C@H](C)CC1 | 5.5 | > 20000 | 0.06 |  | 293 |  | 11 |  | CC50 at 72 h [17]: ≥ 20000 nM
CC(C)(C)C#Cc1cc(N(C(=O)[C@H]2CC[C@H](C)CC2)[C@H]2CC[C@H](Oc3ccccn3)CC2)c(C(=O)O)s1 | 2.5 | > 20000 |  | 297 |  | 1050 |  | 100 | MRT [2]: 5 h; chromatographic logD [12]: 3
CC(C)N(c1cc(-c2ccccc2)sc1C(=O)O)C(=O)[C@H]1CC[C@H](C)CC1 | 170 | > 20000 | 0.08 | 2100 |  |  |  |  | EC50 [18]: 593 nM; CC50 at 72 h [17]: ≥ 20000 nM
CC(C)(C)C#Cc1cc(N(C(=O)[C@H]2CC[C@H](C)CC2)[C@H]2CC[C@H](O)CC2)c(C(=O)O)s1 [LOMIBUVIR] | 2.8 | > 20000 | 0.19 | 13 |  |  |  |  | FC [19]: 3.7; EC50 [18]: 6 nM; CC50 at 72 h [17]: ≥ 20000 nM
